From patent US4820715A, “Anti-emetic quinuclidinyl benzamides” (Bristol-Myers Company, priority 1987, dated 1989) come the findings set out here.

The subject of experiment [1] is Apomorphine-Induced Emesis. The experiment can be described thus: Antagonism of Apomorphine-Induced Emesis in Dogs. It is filed as in vivo, beagle dogs. To be noted: Canis lupus familiaris, sc, read-out: Antagonism of Apomorphine-Induced Emesis in the Dog ED50. Here is the method: Unfasted beagle dogs of both sexes were used as test subjects. Test compounds and apomorphine were each administered subcutaneously as aqueous solutions, with the test compound being administered 30 minutes prior to the administration of the apormorphine.
Apomorphine was administered at a dose of 0.3 mg/kg. […] All tests were run in at least two dogs.

The next experiment deals with Cisplatin-Induced Emesis. The experiment can be described thus: Antagonism of Cisplatin-Induced Emesis in the Ferret. It is filed as in vivo, Fitch ferrets. The note with it: Mustela putorius, iv, 4 h, read-out: Antagonism of Cisplatin-Induced Emesis in the Ferret, % Protection. An excerpt:
The ventral and dorsal area of the neck is shaved and a 3 cm incision is made. The left jugular vein is exposed and ligated with a silk suture at the cephalic end. The indwelling catheter is constructed of Silastic tubing 18 cm in length (0.020 inch I.D.×0.037 inch O.D.) with a 2 cm polyethylene sleeve (0.045 inch I.D.×0.062 inch O.D.) filled with heparin (1000 units/ml) and sealed at the exposed end with a 23 gauge×1 inch needle crimped at both ends. A small cut is made in the jugular and the catheter inserted, allowing the free end to be delivered through a 13 gauge×5 cm trochar under the skin and attached to the nape of the neck with a silk suture. The ferrets are housed in individual cages and allowed 2-4 days recovery before testing. On the test day, the test compounds were administered i.v. […] The cisplatin solution was prepared by adding 70° C. physiological saline, stirring and sonicating until dissolved. The resulting solution (4 mg/ml) was maintained at 40° C. and administered i.v. ([…]) via the catheter. Following administration of cisplatin, the ferrets were observed continuously for four hours and emetic episodes recorded. Two or more emetic episodes within a one-minutes period was considered as a single episode. The ferrets were euthanized with T-61 i.v. at the termination of the experiment, and proper placement of the catheter was verified.

Experiment [2] concerns field-stimulated guinea pig ileum. As to the kind of experiment: Gastrokinetic Activity: contraction of field-stimulated guinea pig ileum preparations. Set-up: species or system guinea pig (Hartley). To be noted: Cavia porcellus. Here is the method: This activity is considered to be correlated with gastrokinetic (prokinetic) activity in vivo, i.e. enhancement of gastric motility and gastric emptying.
Normal, male guinea pigs (Hartley; Charles River) weighing […] are sacrificed by cervical dislocation. The terminal portion of the ileum was removed after discarding a 10 cm segment nearest to the ileocecal junction. The strips, 3-4 cm in length, were mounted in a 20 ml organ bath containing Krebs physiological buffer solution. The buffer was bubbled with 95% O2 -5% CO2 and kept at 37° C. The resting tension was adjusted to 1.0 g, and the tissues were equilibrated without stimulation for 15 minutes. For electrical stimulation, a platinum wire (cathode) was threaded up through the lumen and another platinum wire (anode) was attached to the glass rod that suspended the muscle. Tissues were stimulated coaxially at 1.5 times the voltage necessary to produce maximum twitch height, with single pulses, 0.5 msec in duration, delivered once every 10 seconds. After the 15 minute equilibration period (without stimulation), the stimulator (Grass S88 Stimulator) was turned on and the tissues were allowed to stabilize for approximately 1 hour, or until the twitch height remained constant, with washes every 20 minutes.

Setting [3] is: s.c. 30 minutes prior to apomorphine 0.3 mg/kg, dog.

As a reminder, the ED50 is the midpoint of the dose-response relation. A word on the EC30: it is the point of the concentration-response curve where the effect stands at 30%. As a reminder, the EC50 is the concentration needed to bring the measured effect to its halfway point.

Structures are written as SMILES. Counter-ions that a name gives are not always drawn. Like-named read-outs stand apart in the source and are kept apart here. A value given as a limit tells only on which side of the number the result lay.

On to `O=c1[nH]c2ccccc2n1CCCN1CCC(n2c(=O)[nH]c3cc(Cl)ccc32)CC1` [Domperidone, reference compound], for which the ED50 in experiment [1] is 0.2 mg/kg. In the experiment with Cisplatin-Induced Emesis, the inhibition in vivo at 3 mg/kg turned out to be 50%.
As for `CCN(CC)CCNC(=O)c1cc(Cl)c(N)cc1OCC(OC)OC` [Example 3, 4-Amino-5-chloro-N-[2-(diethylamino)ethyl]-2-(2,2-dimethoxyethoxy)benzamide], in experiment [1] (setting [3]), the ED50 is over 3 mg/kg. The inhibition in vivo at 3 mg/kg with Cisplatin-Induced Emesis (3 mg/kg, i.v. × 2) stood at 82%.
As for `CCN(CC)CCNC(=O)c1cc(Cl)c(N)cc1OCC(O)Cc1ccccc1` (stereo not drawn) [Example 33, 4-Amino-5-chloro-N-[2-(diethylamino)ethyl]-2-[2-(2-hydroxy-3-phenylpropyl)]oxybenzamide], the ED50 in experiment [1] (setting [3]) is over 3 mg/kg. In the experiment with Cisplatin-Induced Emesis (i.v. × 2), the inhibition in vivo at 1 mg/kg stood at 54%.
As for `CCN(CC)CCNC(=O)c1cc(Cl)c(N)cc1OCC(=O)c1ccccc1` [Example 6, 4-Amino-2-(2-phenyl-2-oxoethoxy)-5-chloro-N-[2-(diethylamino)ethyl]benzamid], the ED50 in experiment [1] (setting [3]) was over 3 mg/kg. Further, in the experiment on Cisplatin-Induced Emesis (3 mg/kg, i.v. × 2), the inhibition in vivo at 3 mg/kg worked out at 100%.
In the case of `CCN(CC)CCNC(=O)c1cc(Cl)c(N)cc1OCC(=O)C(C)C` [Example 29, 4-Amino-5-chloro-N-[2-(diethylamino)ethyl]-2-[(3-methyl)-butan-2-on-1-yl]oxybenzamide], in experiment [1] (setting [3]), the ED50 was over 3 mg/kg. Further, in the experiment with Cisplatin-Induced Emesis (i.v. × 2), the inhibition in vivo at 1 mg/kg was 44%.
For `CCC(Oc1cc(N)c(Cl)cc1C(=O)NCCN(CC)CC)C(C)=O` (stereo not drawn) [Example 25, 4-Amino-5-chloro-N-[2-(diethylamino)ethyl]-2-(pentan-2-on-3-yl)oxybenzamide], the ED50 in experiment [1] (setting [3]) is over 3 mg/kg. Moreover, in the experiment with Cisplatin-Induced Emesis (i.v. × 2), the inhibition in vivo at 1 mg/kg was 58%.
On to `CCN(CC)CCNC(=O)c1cc(Cl)c(N)cc1OCC(C)O` (stereo not drawn) [Example 12, 4-Amino-5-chloro-N-[2-(diethylamino)ethyl]-2-(2-hydroxypropan-1-yl)oxybenzamide], for which the ED50 in experiment [1] (setting [3]) is over 3 mg/kg. Besides, the inhibition in vivo at 3 mg/kg in the experiment with Cisplatin-Induced Emesis (3 mg/kg, i.v. × 2) was 86%.
As to `CCC(=O)COc1cc(N)c(Cl)cc1C(=O)NCCN(CC)CC` [Example 26, 4-Amino-2-(2-butanon-1-yl)oxy-5-chloro-N-[2-(diethylamino)-ethyl]benzamide], the ED50 in experiment [1] (setting [3]) is over 3 mg/kg. In addition, the inhibition in vivo at 3 mg/kg in the experiment on Cisplatin-Induced Emesis (3 mg/kg, i.v. × 2) came to 90%.
For `CCN(CC)CCNC(=O)c1cc(Cl)c(N)cc1OCC1OCCO1` [Example 43] the same measures were over 3 mg/kg and 67%.
With `CCN(CC)CCNC(=O)c1cc(Cl)c(N)cc1OC(C)C(C)O` (mixture of isomers) [Example 41, 4-Amino-5-chloro-N-[2-(diethylamino)ethyl]-2-[(2-hydroxy)but-3-yl]oxybenzamide (mixture of threo and erythro isomers)], the ED50 in experiment [1] (setting [3]) is over 3 mg/kg. In addition, in the experiment on Cisplatin-Induced Emesis (3 mg/kg, i.v. × 2), the inhibition in vivo at 3 mg/kg came to 81%.
For `CCN(CC)CCNC(=O)c1cc(Cl)c(N)cc1OCC1COC(C)(C)O1` (stereo not drawn) [Example 18, 4-Amino-5-chloro-N-[2-(diethylamino)ethyl]-2-(2,2-dimethyl-1,3-dioxalan-4-yl)methoxybenzamide] the same measures were over 3 mg/kg and 72%.
Consider `C=CCC(Oc1cc(N)c(Cl)cc1C(=O)NCCN(CC)CC)C(C)=O` (stereo not drawn) [Example 24, 4-Amino-5-chloro-N-[2-(diethylamino)ethyl]-2-(5-hexan-2-on-3-yl)oxybenzamide hydrochloride], for which the ED50 in experiment [1] (setting [3]) was over 3 mg/kg. The inhibition in vivo at 3 mg/kg in the experiment on Cisplatin-Induced Emesis (3 mg/kg, i.v. × 2) was 67%.
For `CCN(CC)CCNC(=O)c1cc(Cl)c(N)cc1OCCC1(C)OCCO1` [Example 54] the same measures were over 3 mg/kg and 81%.
On to `CCN(CC)CCNC(=O)c1cc(Cl)c(N)cc1OCC(C)=O` [Example 5, 4-Amino-5-chloro-N-[2-(diethylamino)ethyl]-2-(2-propanon-1-yl)oxybenzamide], for which the ED50 in experiment [1] (setting [3]) is over 3 mg/kg. For the same compound, the inhibition in vivo at 3 mg/kg with Cisplatin-Induced Emesis (3 mg/kg, i.v. × 2) is 90%.
For `CCN(CC)CCNC(=O)c1cc(Cl)c(N)cc1OCC(C)=NO` [Example 10, 4-Amino-5-chloro-N-[2-(diethylamino)ethyl]-2-[(2-hydroxyimino)propan-1-yl]oxybenzamide] the same measures were over 3 mg/kg and 100%.
For `CCN(CC)CCNC(=O)c1cc(Cl)c(N)cc1OC(C)C(C)=O` (stereo not drawn) [Example 7, 4-Amino-2-(butan-2-on-3-yl)oxy-5-chloro-N-[2-(diethylamino)ethyl]benzamide] the same measures were over 3 mg/kg and 95%.
Turning to `CCN(CC)CCNC(=O)c1cc(Cl)c(N)cc1OCC(=O)Cc1ccccc1` [Example 30, 4-Amino-5-chloro-N-[2-(diethylamino)ethyl]-2-(3-phenyl-2-propanon-1-yl)oxybenzamide], the ED50 in experiment [1] (setting [3]) was over 3 mg/kg. The inhibition in vivo at 3 mg/kg with Cisplatin-Induced Emesis (3 mg/kg, i.v. × 2) turned out to be 100%.
As for `CCCC(=O)COc1cc(N)c(Cl)cc1C(=O)NCCN(CC)CC` [Example 27, 4-Amino-5-chloro-N-[2-(diethylamino)ethyl]-2-(pentan-2-on-1-yl)oxybenzamide], the ED50 in experiment [1] (setting [3]) was over 3 mg/kg. Further, in the experiment with Cisplatin-Induced Emesis (i.v. × 2), the inhibition in vivo at 1 mg/kg is 90%.
With `CCN(CC)CCNC(=O)c1cc(Cl)c(N)cc1OCc1ccccn1` [Example 45, 4-Amino-5-chloro-N-[2-(diethylamino)ethyl]-2-(2-pyridinomethyl)oxybenzamide], the ED50 in experiment [1] (setting [3]) was over 3 mg/kg. The inhibition in vivo at 3 mg/kg in the experiment with Cisplatin-Induced Emesis (3 mg/kg, i.v. × 2) was found to be 80%.
As for `CN(C)CCNC(=O)c1cc(Cl)c(N)cc1O` [Example 17, 4-Amino-5-chloro-N-[2-(dimethylamino)ethyl]-2-hydroxybenzamide], in experiment [2] (at 10 μM, read-out: Average % Maximum Increase), the activation at 10 µM came to 41%. In addition, in experiment [2] (effective concentration30, read-out: EC30 (95% C.L.)), the EC30 came out at 5.4 µM. The EC50 in experiment [2] (effective concentration50, read-out: EC50 (95% C.L.)) turned out to be 15 µM. The minimal effective concentration in experiment [2] (read-out: Minimum Effective Concentration) came out at 0.3 µM.
In the case of `CCC(=O)C(C)Oc1cc(N)c(Cl)cc1C(=O)NCCN(CC)CC.Cl` (stereo not drawn) [Example 28, 4-Amino-5-chloro-2-(pentan-3-on-2-yl)oxy-N-(2-diethylaminoethyl)benzamide hydrochloride], the ED50 in experiment [1] (setting [3]) was over 3 mg/kg. Also, the inhibition in vivo at 1 mg/kg in the experiment on Cisplatin-Induced Emesis (i.v. × 2) is 82%.
As for `CCN(CC)CCNC(=O)c1cc(Cl)c(N)cc1OCC#N` [Example 13, 4-Amino-5-chloro-2-cyanomethoxy-N-[2-(diethylamino)ethyl]benzamide], in experiment [1] (setting [3]), the ED50 was over 3 mg/kg. The inhibition in vivo at 3 mg/kg with Cisplatin-Induced Emesis (3 mg/kg, i.v. × 2) was 90%.
The matching figures for `CCN(CC)CCNC(=O)c1cc(Cl)c(N)cc1OC1CCCCC1=O` (stereo not drawn) [Example 9, 4-Amino-5-chloro-2-(cyclohexanon-2-yl)oxy-N-[2-(diethylamino)ethyl]benzamide]: over 3 mg/kg and 100%.
In the case of `CCN(CC)CCNC(=O)c1cc(Cl)c(N)cc1OC(C)(C)C(C)=O.O` [Example 31, 4-Amino-5-chloro-N-[2-(diethylamino)ethyl]-2-[(3-methyl)butan-2-on-3-yl]oxybenzamide monohydrate], the ED50 in experiment [1] (setting [3]) is over 3 mg/kg. In addition, the inhibition in vivo at 1 mg/kg in the experiment on Cisplatin-Induced Emesis (i.v. × 2) was 67%.
`CCN(CC)CCNC(=O)c1cc(Cl)c(N)cc1OCCOC` [Example 1, 4-Amino-5-chloro-N-[2-(diethylamino)ethyl]-2-(2-methoxyethoxy)benzamide]: the ED50 in experiment [1] (setting [3]) is over 3 mg/kg. Besides, the inhibition in vivo at 3 mg/kg in the experiment with Cisplatin-Induced Emesis (3 mg/kg, i.v. × 2) was found to be 76%.
For `CCN(CC)CCNC(=O)c1cc(Cl)c(N)cc1OCCO` [Example 2, 4-Amino-5-chloro-N-[2-(diethylamino)ethyl]-2-(2-hydroxyethoxy)benzamide] the same measures were over 3 mg/kg and 68%.
